Data set [1] deals with streptozotocin-induced diabetic mice. Conditions: supplement using osmotic pumps; cited from earlier work.
For data set [2], the system named is human umbilical vein endothelial cells. Conditions: dose-dependent; cited from earlier work.
Data set [3] concerns human CD4+ cells. Briefly: Human CD4+ lymphocyte-migration assay (modified Boyden chamber). It counts as cell-based. On the procedure:
A: Synthetic human-C-peptide (1-31, having ERC-binding-motif LGGGPG) was tested in human CD4+ lymphocyte-migration assay together with negative and treatment controls: no C-peptide added, scrambled version of human C-peptide (1-31, lacking any xGxxPx motif) and pig-C-peptide (1-29, ˜74% similarity to human C-peptide but lacking any xGxxPx motif; alignment with human C-peptide shown herewith).
Freshly isolated human CD4+ cells were incubated for 3 h with the indicated C-peptide variants (10 nM) to assess the effect on cell migration in a modified Boyden chamber. Results are expressed as the mean±SEM, ****P<0.001 treatments vs. control.
B: Freshly isolated human CD4 cells were preincubated for 3 h with V14 peptide (10 μM) or lactose (10 mM) and then stimulated with C-peptide (1-31) for 3 H as indicated in (A). Results are expressed as the mean±SEM. *P<0.05, ****P<0.001 treatments vs. control, […] ###P<0.001 treatments vs. human C-peptide (1-31).

Data set [4] has as its system LPS-activity. Conditions: cited from earlier work.
The test system of data set [5] is human pulmonary microvascular endothelial cells. Kind of data set: Microvascular angiogenesis (sprouting) assay in Matrigel. It counts as cell-based. As to conditions: for angiogenic activities (total tube length): Matrigel, increasing concentrations, t=24 h, data not shown; for angiogenic (core) activity in sprouting assay: human vascular endothelial cells, as demonstrated herein. As for the experimental part: Human pulmonary microvascular endothelial cells (Hpmec, HUVE, or other vascular EC, may also be used) were cultured in EBM-2 medium (Lonza, CC-3156) supplemented with 10% FBS and all components present in the bullet kit (Lonza, CC-4147) containing human recombinant FGF-B, human recombinant VEGF, human recombinant R3-IGF-1, ascorbic acid, human recombinant EGF and GA-1000 (Gentamicin sulfate-Amphotericin). 24 hours prior to the assay Hpmec were starved in EBM-2 medium containing 0.5% FBS instead of 10% FBS. For introduction in the angiogenesis assay, endothelial cells were washed 2 times with warm PBS, trypsinized and resuspended in serum free EBM-2 medium. For the angiogenesis assay, Matrigel (Fisher Scientific, Landsmeer, The Netherlands #11523550) was diluted 1:1 in serum-free EBM-2 medium and plated in a 96-well plate (50 μL). After polymerization, the cells were combined with the experimental peptide fragments and added on top of the Matrigel (100 μL). Pictures of the microvascular network were taken after 24 hours of incubation with a 4× objective and analysed using the plug-in angiogenesis analyser in ImageJ.

Data set [6] deals with NOD mice. As to conditions: cited from earlier work.
Data set [7] deals with TNF-α and IL-6. As to conditions: rat, hemorrhagic shock; cited from earlier work.
Data set [8] concerns mTOR. Conditions: piglets; cited from earlier work.
A short description of data set [9]: Distribution and elimination of intravenously injected [14C]-AQGV from mice. It counts as in vivo, male CD-1 mice. As for the experimental part: The present study, which was conducted by TNO Biosciences, Utrechtseweg, Netherlands, was designed to provide data on the distribution and metabolism of [^14C]-AQGV (Ala-Gln-[1-^14C]Gly-Val) in male CD-1 mice following a single intravenous dose of 50 mg/kg. To this end, mice were sacrificed at 10, 30 and 60 minutes, and 6 and 24 hours after administration of radiolabeled AQGV, counts in various tissues were determined, and the radioactivity present in the urine and plasma were analyzed by HPLC.

Setting [10] is: after 10 minutes, 50 mg/kg i.v.

This is an account of results in patent publication US20240398894A1, “ANGIOGENIC CONTROL, PREFERABLY COMBINED WITH GLYCAEMIC CONTROL” (BIOTEMPT B.V., priority 2021, published 2024).

Where a SMILES comes first, the peptide text is derived from it.

In the case of human C-peptide, in data set [1], the “rate of skin wound closure” value was “significantly increased”. In addition, the “concentration of maximal effect on endothelial cell migration and tube formation” value in [2] is listed as 0.5 nM. In data set [3] (10 nM, 3 h incubation), the “effect on CD4+ lymphocyte migration” value is “upregulating effect”.
As for VLPALA, in data set [4], the LPS-activity in vitro entry is reported as “significantly inhibited”.
Regarding VGVAPG, in [5], the “angiogenic activities (total tube length)” value (“angiogenic activities” for short) was “significantly induced angiogenic activities” and the “angiogenic (core) activity in sprouting assay” value (from here on “angiogenic (core) activity”) is recorded as “core-angiogenic activities have been demonstrated”.
Consider ALPALP, for which, in [4], the LPS-activity in vitro entry was “significantly inhibited”.
Take VLAALP: the LPS-activity in vitro entry in [4] is “significantly inhibited”.
Take LGGGPG: in data set [5], the “angiogenic activities” value is “significantly induced angiogenic activities”.
Turning to VLPALP, the T1D-onset result in data set [6] was “significantly (p<0.0001) delay”. In addition, the LPS-activity in vitro result in data set [4] is listed as “significantly inhibited”.
As to AQGV, in data set [7], the “systemic release of IL-6” value is listed as “significantly (p<0.001) prevented” and the “systemic release of TNF-α” value is reported as “significantly (p<0.001) prevented”. For the same compound, the LPS-activity in vitro result in data set [4] is given as “significantly inhibited”.
For the compound LOGA, in data set [4], the LPS-activity in vitro entry is on record as “significantly inhibited”.
Take VLPAAP: in data set [4], the LPS-activity in vitro entry is recorded as “significantly inhibited”.
With LAGV, in data set [7], the “systemic release of IL-6” value is recorded as “significantly (p<0.001) prevented” and the “systemic release of TNF-α” value was “significantly (p<0.001) prevented”. Also, in data set [4], the LPS-activity in vitro result is listed as “significantly inhibited”.
LQAV: in [4], the LPS-activity in vitro entry is on record as “significantly inhibited”.
As for `C[C@H](N)C(=O)N[C@@H](CCC(N)=O)C(=O)O` [AQ, Alanyl-glutamine] (H-Ala-Gln-OH), in data set [8], the autophagy-inhibition result was “demonstrated”.
Take LQGV: in data set [7], the “systemic release of IL-6” value is “significantly (p<0.001) prevented” and the “systemic release of TNF-α” value was “significantly (p<0.001) prevented”. For the same compound, in data set [6], the T1D-onset entry is reported as “significantly (p<0.0001) delay”. Besides, the LPS-activity in vitro entry in data set [4] is “significantly inhibited”.
In the case of PGAYPG, in data set [5], the “angiogenic activities” value was “significantly induced angiogenic activities” and the “angiogenic (core) activity” value is reported as “have angiogenic core activities”.
As to “VGVAPGVGVAPGVGVAPG [18-meric peptide derived from human elastin]”, the “angiogenic (core) activity” value in data set [5] is “core-angiogenic activities have been demonstrated”.
Turning to “GAYPGAPGAYPGAPAPGV [18-meric peptide derived from the human N-terminal fragment of galectin-3]”, the “angiogenic (core) activity” value in data set [5] is listed as “have angiogenic core activities”.
Regarding Ala-Gln-[1-^14C]Gly-Val [[^14C]-AQGV], the “average total recovery of radioactivity” value was found to be 83.2% in data set [9] (10 minutes after dose administration); 70.5% in data set [9] (30 minutes after dose administration); 62.9% in [9] (60 minutes after dose administration); 52.6% in data set [9] (6 hours after dose administration); 50.8% in [9] (24 hours after dose administration). For the same compound, the “administered radioactivity excreted in feces” value in data set [9] (after 24 hours) was found to be 2.6%. In [9] (after 24 hours), the “administered radioactivity excreted in urine” value stood at 10.2%. Besides, in data set [9] (after intravenous injections), the “removal from the blood” value is given as “rapidly removed”. Moreover, the “radioactivity in the blood, amount present if all of the counts were in intact peptide” value in data set [9] (blood, 10 minutes after single intravenous dose of 50 mg/kg) is 17.2 µg/g. For the same compound, the “concentration of "peptide" (radioactivity) in kidneys” value in data set [9] (setting [10]) is 362 µg/g; in data set [9] (after 24 hours, 50 mg/kg i.v.), 61.9 µg/g. The “concentration of "peptide" (radioactivity) in liver” value turned out to be 105 µg/g in data set [9] (setting [10]) and 37.6 µg/g in data set [9] (after 24 hours, 50 mg/kg i.v.). The “concentration of "peptide" (radioactivity) in lung” value in data set [9] (lung, after 10 minutes, 50 mg/kg i.v.) came out at 75.2 µg/g. Also, the “time to full hydrolysis of the peptide after administration” value in [9] (mice) is on record as 15 min. For the same compound, the “parent compound in plasma” value in data set [9] (plasma after 10 minutes, HPLC, 50 mg/kg i.v.) is “No parent compound could be detected”. The “concentration of "peptide" (radioactivity) in skin” value in [9] (skin, after 24 hours, 50 mg/kg i.v.) turned out to be 37.5 µg/g. The “concentration of "peptide" (radioactivity) in spleen” value turned out to be 74.7 µg/g in [9] (setting [10]) and 39.3 µg/g in data set [9] (after 24 hours, 50 mg/kg i.v.). Also, the “concentration of "peptide" (radioactivity) in testis” value in [9] (testis, after 10 minutes, 50 mg/kg i.v.) was 85.7 µg/g. Besides, the “concentration of "peptide" (radioactivity) in thymus” value in data set [9] (thymus, after 24 hours, 50 mg/kg i.v.) was determined as 43.1 µg/g. The “administered radioactivity exhaled as volatiles, most likely 14C-CO2” value in data set [9] (up to 24 hours) is recorded as “About 50%”. Further, in data set [9] (urine, HPLC, 50 mg/kg i.v.), the “parent compound in urine” value is “No parent compound was detected”.
On to `OC[C@H]1O[C@@H](O[C@H]2[C@H](O)[C@@H](O)C(O)O[C@@H]2CO)[C@H](O)[C@@H](O)[C@H]1O` (stereo partly drawn) [lactose], for which the “effect on CD4+-migratory effects of C-peptide” value in data set [3] (preincubated 3 h with V14 peptide (10 μM) or lactose (10 mM), then C-peptide (1-31)) is on record as “blunted”.
As to VAPALP, the LPS-activity in vitro result in data set [4] is on record as “significantly inhibited”.
